Data taken from US9468641B2, “Anti-inflammatory pharmaceutical composition comprising benzopyranyl tetracycles” (SEOUL NATIONAL UNIVERSITY R&DB FOUNDATION, priority 2014, dated 2016).

Tests used:
HMGB2 [1] = molecular target: T1, HMGB2 (Mus musculus, UniProt P30681); assay: Pull-down assay with immunoblotting for HMGB2; format: binding; conditions: ICM 20 μM as soluble competitor, ICM-BP 5 μM, FIG. 12
T1 construct: endogenous in cells
T1 sequence (P30681 1-210): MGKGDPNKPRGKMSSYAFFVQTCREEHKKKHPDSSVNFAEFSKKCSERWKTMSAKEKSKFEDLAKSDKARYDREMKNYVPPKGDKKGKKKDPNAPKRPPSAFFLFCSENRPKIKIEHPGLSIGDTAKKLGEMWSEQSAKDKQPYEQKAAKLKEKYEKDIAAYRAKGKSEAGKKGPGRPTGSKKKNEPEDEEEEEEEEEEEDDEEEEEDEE
Procedure: Cells were treated with the compounds (ICM-BP alone or ICM-BP/ICM in combination) for 30 min and then with LPS for 2 hrs. Afterwards, the cells were irradiated with 365-nm UV light for 30 min, washed with PBS and stored at −78° C. They were lysed in RIPA buffer containing a protease inhibitor cocktail, and the protein concentration was adjusted to approximately 1 mg/ml. The proteome was labeled with Cy5-azide (40 μM), TBTA (100 μM), CuSO4 (1 mM), TCEP (1 mM) and t-BuOH (5%) for 1 hrs. The mixture was treated with acetone at −20° C. for […] to precipitate proteins. After centrifugation at 4° C. and 14,000 rpm for […], the pellet was washed twice with cold acetone. For 1-D gel analysis, the pellet was dissolved in Laemmli sample buffer and analyzed by electrophoresis. For 2-D gel analysis, the pellet was dissolved in rehydration buffer. The proteome labeled with ICM-BP (test group) and the control (labeled with ICM-BP/ICM) were mixed (1:1 ratio). The mixed proteomes were analyzed by 2-D gel electrophoresis. In-gel fluorescence was scanned with a Typhoon Trio (GE Healthcare).
Cell lysates were prepared according to the same protocol used for the in-gel analysis (lyzed in RIPA buffer containing a protease inhibitor cocktail). […] Samples were boiled with Laemmli sample buffer, and analyzed by electrophoresis and immunoblotting for HMGB2.

HMGB2 and HMGB1 = assay: Immunoprecipitation analysis of post-translational modification; format: cell-based; conditions: western blotting, FIG. 18
Procedure: (§1) After exposure to ICM in the presence of LPS for 18 hrs, cells were lysed in subcellular fraction buffer (250 mM sucrose, 20 mM HEPES, 10 mM KCl, 1 mM EDTA, 1 mM EGTA, 1 mM DTT, and protease inhibitor cocktail), passed through a 25-Ga needle several times, and incubated on ice for 20 min. After centrifugation at 3,000 rpm for 5 min, the pellet and the supernatant were separated. The nuclear pellet was washed and then resuspended in standard lysis buffer with 10% glycerol and 0.1% SDS. The cytosolic fraction was obtained by centrifugation of the separated supernatant at 8,000 rpm for 15 min. The conditioned medium was collected for the analysis of the extracellular level of HMGBs and concentrated with Amicon Ultra 10K filters. The samples were analyzed by electrophoresis and western blotting.
For the analysis of post-translational modification levels on HMGB, immunoprecipitation was performed. […] The concentration of protein was measured by BCA assay, and the lysates were incubated overnight with an anti-phosphoserine antibody or an anti-acetylated lysine antibody at 4° C., followed by precipitation with a protein G immunoprecipitation kit (Sigma). Each of the samples was analyzed for HMGB2 level by western blot assays.

NF-κB signaling (p65) = assay: Immunofluorescence staining of nuclear translocation of p65; format: cell-based; conditions: LPS stimulation, FIG. 5
Procedure: Cells were pretreated with ICM and LPS for 1 hr and then fixed with 4% paraformaldehyde for 30 min at 20° C. and with cold methanol for 10 min at −20° C. After permeabilization with 0.3% Triton X-100 and PBS for 10 min, the fixed cells were blocked with 1% normal horse serum for 1 hr and incubated with mouse anti-p65 antibody at 4° C. for 12˜16 hrs. After washing with PBS containing 0.05% Tween-20 (PBST), Alexa Fluor-488-labeled goat anti-mouse IgG antibody was added to the sample, incubated for 1 hr at room temperature and washed with PBST. Nuclei were visualized by DAPI staining. Samples were analyzed by fluorescence microscopy.

HMGB2 [2] = molecular target: T1, HMGB2; assay: Subcellular fractionation and secretion analysis; format: cell-based; conditions: LPS stimulation, western blotting, FIG. 17
Procedure: as §1

[3] = system: HAPI cells, Primary neuroblastoma, and RAW 264.7 cells; assay: Griess assay of nitrite release in further cell lines; format: cell-based; conditions: LPS stimulation, FIG. 2
Procedure: Cells increase the secretion of nitrite when induced to be inflammatory, but decrease the secretion of nitrite in the presence of an anti-inflammatory agent. […] Cells were treated with the compounds in the absence or presence of 100 ng/mL LPS (lipopolysaccharide). After 24 hrs of incubation, the cell culture media were reacted with Griess reagent (0.1% naphthylethylenediamine dihydrochloride and 1% sulfanilamide in 2% phosphoric acid). Absorbance was measured at 550 nm using a microplate reader, and the level of nitrite was estimated by comparison with a sodium nitrite standard curve.

## CC1(C)Oc2cc(O)ccc2C2C1=CCn1c(=O)n(-c3ccccc3)c(=O)n12 (centres unmarked) [ICM]
HMGB2 [1]
  competition of ICM-BP binding to HMGB2: markedly lowered the level of binding for HMGB2
HMGB2 and HMGB1
  LPS-induced phosphorylation and acetylation of HMGB2 and HMGB1: the post-translational modification was suppressed by ICM
NF-κB signaling (p65)
  nuclear translocation of p65: suppressed NF-κB signaling
HMGB2 [2]
  translocation of HMGB2 from nucleus to cytoplasm and extracellular milieu: the translocation was suppressed by ICM
[3]
  nitrite release: inhibit nitrite release in a broad range of cell lines
